pIC50: −log10 of the molar value. Square brackets hold non-standard residues; d marks the D form. Side chains are listed from the residue outwards. Ends that are not written are not given here. 5'‑hexylamino oligonucleotide ISIS 786434 = not defined here; Aib = CC(C)(N)C(=O)O; Mpa = O=C(O)CCS
Experiments:
[1] = test system: MALAT1; test: Effect of peptide composition and attachment point on peptide-conjugated ASO activity in LVX-GLP1R cells; type: cell-based, human; settings: 7 doses in a 4-fold dilution series, MALAT1 RNA
[2] = test system: MALAT1; test: MALAT1 expression in liver by in situ hybridization; type: in vivo, mouse
Experimental: Tissues were prepared as described herein, Example 11. The in situ mRNA amplification and labelling process was performed on the Ventana Discovery ULTRA, an Automated ISH platform(Ventana Medical System, Inc) using the RNAscope® VS Assay based on Advanced Cell Diagnostics (ACD). Customized probes were obtained from ACD for the detection of MALAT1 mRNA, and various parameters were tested to optimize the novel RNAscope method for ISH. The signal was amplified using multiple steps, followed by labeled probes and detected using the RNAscope® 2.5 VS Reagent Kit-RED. […] All animals were sacrificed approximately 72 hrs after last, and liver harvested for ex vivo analysis of MALAT1 expression by in situ hybridization. Tissues were prepared, and in situ hybridization performed, as described herein, Example 12.

[3] = test system: MALAT1; test: MALAT1 inhibition in isolated islets 72 hrs after single s.c. dose, various linkers; type: in vivo, mouse
[4] = test system: MALAT1 mRNA; test: Dose dependent antisense inhibition of MALAT1 in WT HEK293 cells; type: cell-based, human; settings: approximately 24 hrs, qRT-PCR normalized to RPLP0
[5] = test system: MALAT1; test: MALAT1 expression in pancreas by in situ hybridization (RNAscope); type: in vivo, mouse; settings: 2 μmol/kg, 72 hrs after last dose
Excerpt: Female C57BL/6Crl mice were assigned to five treatment groups. […] All animals were sacrificed approximately 72 hrs after last dose, and pancreas harvested for ex vivo analysis of uptake of antisense oligonucleotides by immunohistochemistry.
Female C57BL/6Crl mice were assigned to five treatment groups as described herein (Example 11) All animals were sacrificed approximately 72 hrs after last dose, and pancreas harvested for ex vivo analysis of MALAT1 expression by in situ hybridization.
The in situ mRNA amplification and labelling process was performed on the Ventana Discovery ULTRA, an Automated ISH platform(Ventana Medical System, Inc) using the RNAscope® VS Assay based on Advanced Cell Diagnostics (ACD). Customized probes were obtained from ACD for the detection of MALAT1 mRNA, and various parameters were tested to optimize the novel RNAscope method for ISH. The signal was amplified using multiple steps, followed by labeled probes and detected using the RNAscope® 2.5 VS Reagent Kit-RED. Stained slides were analyzed under a standard bright-field microscope.

[6] = test system: MALAT1; test: In situ hybridization of MALAT1 (QuantiGene ViewRNA) in mouse tissues after intravenous ASO; type: in vivo
Excerpt: NO: 63) or a GLP-1 conjugated MALAT1 ASO (ISIS 816385) described in Example 1 at concentrations of 1.8. 0.6, or 0.2 μmol/kg. […] MALAT1 expression was detected using the QuantiGene ViewRNA tissue assay (Affymetrix, cat. No. QVT0011). Species-specific MALAT1 probes were purchased from Affymetrix (cat. No. VB-11110-01/mouse; VF1-13963/monkey). In brief, mouse tissues were fixed in 10% neutral-buffered formalin and embedded into paraffin and sectioned into […]. After deparaffinization, the tissue slides were boiled in Affymetrix pretreatment solution for 10-30 minutes followed by treatment with protease at 40° C. for 10 to 40 minutes depending on tissue. The MALAT1 RNA probe was used at a 1:40 dilution and was incubated with sample at 40° C. for 120 minutes. After washing, the MALAT1 RNA/probe complex was hybridized with preamplifier, amplifier, and AP-oligonucleotides at 40° C. for 25, 15, and 15 minutes, respectively. After removal of free AP oligonucleotide by washing in PBS, the slide was incubated with Fast Red substrate at room temperature for 30 minutes. The tissue images were acquired using an Aperio scanner. Hung et al., 2013 Nuc Acid Ther. 369-78. To determine a dose response of a GLP-1 conjugated MALAT1 ASO (ISIS 816385) described in Example 1 on pancreatic MALAT1 expression, male C57BL/6 mice fed a chow diet received a single intravenous injection of ISIS 816385 or an unconjugated MALAT1 ASO (ISIS 556089) described above at concentrations of 0.2, 0.06, and 0.02 μmol/kg. MALAT1 expression was detected using the QuantiGene ViewRNA tissue assay described above.

[7] = test system: MALAT-1; test: Dose-dependent reduction of MALAT-1 expression in LVX-GLP1R cells; type: cell-based, human
Experimental: HEK cells stably expressing FLAG-tagged GLP1R were generated by infecting HEK 293 cells with FLAG-tagged GLP1R containing lentivirus produced by transfection of 293T cells with pLVX-IRES-Puro (Clontech Laboratories Inc., Mountainview, CA) harboring the FLAG-GLP1R insert. Infected cells were selected with puromycin (2 μg/ml) and then analyzed for receptor expression by western blot and immunofluorescence. Cultured GLP1R cells were plated at a density of 10,000 cells per well and treated with 0.3, 1, 3, 9, 27, 82, 247, 741, 2,222, 6,667, and 20,000 nM modified oligonucleotide for approximately 24 hours. After the treatment period, total RNA was prepared using an RNeasy mini kit (Qiagen, Valencia, CA, USA) and qRT-PCR was performed using the primer probe set RTS2739 (forward sequence: […] (SEQ ID NO: 74), reverse sequence: […] (SEQ ID NO: 75), probe sequence: […] (SEQ ID NO: 76). Briefly, ˜50 ng total RNA in 5 d water was mixed with 0.3 d primer probe sets containing forward and reverse primers (10 μM of each) and fluorescently labeled probe (3 μM), 0.3 W RT enzyme mix (Qiagen), 4.4 d RNase-free water, and 10 d of 2×PCR reaction buffer in a 20 d reaction. Reverse transcription was performed at 48° C. for 10 min, 40 cycles of PCR were conducted at 94° C. for 20 s, and 60° C. for 20 s within each cycle, using StepOne Plus RT-PCR system (Applied Biosystems, Phoenix, AZ, USA). The mRNA levels were normalized to the amount of total RNA present in each reaction as determined by Ribogreen assay (Life Technologies) and normalized to the saline control (100% expression).

**Q.** “ISIS 816385 (H[Aib]EGTFTSDVSSYLEEQAAKEFIAWLVKGGPSSGAPPPSC([Mpa-5'‑hexylamino oligonucleotide ISIS 786434])-NH2; reading uncertain; also: Cys40 joined to the linker by a disulfide)” was tested. Which pIC50 [1] did it give?
**A.** 6.46

**Q.** What about the “Liver MALAT1 expression” value ([2]; 2 μmol/kg intravenous, compared to vehicle control) of the same substance?
**A.** reduced compared to vehicle control

**Q.** And the “Liver MALAT1 expression in hepatocytes” value ([2]; 2 μmol/kg subcutaneous, compared with ISIS 556089)?
**A.** reduced in hepatocytes of animals treated with ISIS 816385 to a greater extent

**Q.** And the “In vivo ED50” value ([3]; MALAT1 in isolated islets, single subcutaneous injection)?
**A.** 0.0088 µmol/kg

**Q.** And the “% MALAT1 inhibition” value ([3]; isolated islets, female C57BL/6Crl mice, single subcutaneous injection of 0.01 μmol/kg)?
**A.** 41%

**Q.** And the pIC50 [4]?
**A.** 5.66

**Q.** And the “MALAT1 expression in the pancreatic islet of Langerhans” value ([5]; subcutaneous or intravenous (ISIS 556089 subcutaneous only))?
**A.** reduced

**Q.** What about the “MALAT1 expression in the exocrine tissue of pancreas” value ([5]; subcutaneous or intravenous) of the same substance?
**A.** not in the exocrine tissue

**Q.** What about the “effect in liver (MALAT1 in situ hybridization)” value ([6]; Study 2, single intravenous injection, any of the doses 0.2, 0.06, 0.02 μmol/kg) of the same substance?
**A.** No observable effect

**Q.** And the “MALAT1 staining in beta islet cells of the pancreas (in situ hybridization)” value ([6]; Study 2, single intravenous injection, at the 0.2 μmol/kg dose and 0.06 μmol/kg dose)?
**A.** reduced MALAT1 staining

**Q.** What about the “MALAT1 expression in pancreatic beta islet cells (in situ hybridization)” value ([6]; male C57BL/6 mice, 2 intravenous injections of 1.8, 0.6 or 0.2 μmol/kg, 72 hours after final injection) of the same substance?
**A.** reduced MALAT1 expression

**Q.** What about the “dose-dependent inhibition of MALAT-1” value ([7]; GLP1R HEK cells, GLP-1 complexed ASOs with or without a TCA linker versus parent) of the same substance?
**A.** increased dose-dependent inhibition

**Q.** What about the pIC50 ([7]; approximately 24 hours, read-out: IC50 (MALAT-1 expression in GLP1R HEK cells)) of the same substance?
**A.** 6.59

Reference: patent US20240293563A1, “GLP-1 RECEPTOR LIGAND MOIETY CONJUGATED OLIGONUCLEOTIDES AND USES THEREOF” (priority 2017, published 2024)
